Test results taken from patent US10214584B2, “Therapeutic pharmaceutical composition employing anti-SLC6A6 antibody” (ORDER-MADE MEDICAL RESEARCH INC., priority 2014, dated 2019).

How the values were obtained:
Type in all cases: cell-based, human
Colo320-Mock = assay: Ratio of SP cells upon addition of taurine, Colo320-Mock; conditions: taurine 0.05-5 mM, FIG. 10
Protocol: (§1) After being transformed in the same manner as shown in Example 8(1) above, the cells were detached on the second day with DISSOCIATION BUFFER (Invitrogen). The cells were stained at 37° C. for 1 hour with a solution prepared to contain 10 μg/mL Hoechst 33342 in PBS(−), followed by analysis using FACS Canto II and a Violet laser (excitation wavelength: 407 nm). Moreover, to identify an SP fraction, an additional experiment was conducted in which verapamil serving an inhibitor of drug efflux transporters was added at a concentration of 30 μg/mL.
(§2) For this analysis, Colo320 cells (which are human colorectal cancer cells) were engineered to overexpress SLC6A6 and cultured for 2 days in a medium supplemented with taurine at a concentration of 0.05 mM, 0.1 mM, 0.5 mM, 1 mM or 5 mM, and then analyzed for SP cells in the same manner as shown in Example 1(3).

Colo320-SLC6A6-OEx = assay: Ratio of SP cells upon addition of taurine, Colo320-SLC6A6-OEx
Protocol: as §1, §2

[1] = tested on: SW480 cells (SP and MP fractions); assay: FACS staining of SP and MP fractions of SW480 cells; conditions: SW480, verapamil 30 μg/mL
Protocol: Moreover, to identify an SP fraction, an additional experiment was conducted in which verapamil serving an inhibitor of drug efflux transporters was added at a concentration of 30 μg/mL.
SLC6A6 expression was analyzed for the SP fraction and non-SP fraction (i.e., major population (MP) fraction) of SW480 cells, which are human colorectal cancer cells.

Row | SMILES | number of SP cells (Colo320-Mock) | increase of ratio of SP cells compared to the absence of taurine (Colo320-SLC6A6-OEx; 5 mM taurine) | ratio of SP cells (Colo320-SLC6A6-OEx; 5 mM taurine, cultured 2 days (17.0% in the absence of taurine)) | number of SP cells (Colo320-SLC6A6-OEx; taurine 0.05-5 mM, FIG. 10) | SP cells in the presence of verapamil [1]
1 | NCCS(=O)(=O)O [taurine] | increased in a manner dependent on the added concentration of taurine | about 2.5 fold | 26.7% | increased in a manner dependent on the added concentration of taurine | 
2 | COc1ccc(CCN(C)CCCC(C#N)(c2ccc(OC)c(OC)c2)C(C)C)cc1OC (centres unmarked) [verapamil] |  |  |  |  | no SP cells were observed
